For orientation: IC50 means the concentration that inhibits the measured activity by half.

This is an account of results in ChEMBL document CHEMBL1147713, “Inhibition of trypsin and urokinase by Cbz-amino(4-guanidinophenyl)methanephosphonate aromatic ester derivatives: the influence of the ester group on their biological activity” (Bioorg Med Chem Lett, 2006).

Assay [1] in a line: Inhibition of bovine trypsin by chromogenic assay using Bzl-L-Arg-pNA as chromogenic substrate. Further details: species or system Bos taurus; call rule not given here.
Assay [2] is described as follows: Selectivity for trypsin over uPA by chromogenic assay.
In assay [3] the target is Urokinase-type plasminogen activator (Homo sapiens, UniProt P00749). Briefly: Inhibition of human uPA by chromogenic assay using Cbz-Val-Gly-Arg-pNA as chromogenic substrate.

For `CS(=O)(=O)c1ccc(OP(=O)(Oc2ccc(S(C)(=O)=O)cc2)C(NC(=O)OCc2ccccc2)c2ccc(NC(=N)N)cc2)cc1` (centres undefined), the figures for the half-maximal inhibitory concentration (IC50) in assay [1] (read-out: IC50) and in assay [3] were 23000 nM and 53 nM, respectively. Also, in assay [2], the Ratio IC50 came to 434.

For the compound `CSc1ccc(OP(=O)(Oc2ccc(SC)cc2)C(NC(=O)OCc2ccccc2)c2ccc(NC(=N)N)cc2)cc1` (centres undefined), the values for the concentration for half-maximal inhibition (IC50) in assay [1] (read-out: IC50) and in assay [3] were 8.7 nM and 26 nM, respectively. In addition, the Ratio IC50 in assay [2] came out at 0.33.

In the case of `CC(C)(C)CC(C)(C)c1ccc(OP(=O)(Oc2ccc(C(C)(C)CC(C)(C)C)cc2)C(NC(=O)OCc2ccccc2)c2ccc(NC(=N)N)cc2)cc1` (centres undefined), the IC50 in assay [1] (read-out: IC50) worked out at 2310 nM; in assay [3], 204 nM. For the same compound, in assay [2], the Ratio IC50 came out at 11.3.

With `CCc1ccc(OP(=O)(Oc2ccc(CC)cc2)C(NC(=O)OCc2ccccc2)c2ccc(NC(=N)N)cc2)cc1` (centres undefined), the values for the IC50 in assay [1] (read-out: IC50) and in assay [3] were 17 nM and 7800 nM, respectively. Also, the Ratio IC50 in assay [2] was 0.002.

For the compound `CC(C)(C)c1ccc(OP(=O)(Oc2ccc(C(C)(C)C)cc2)C(NC(=O)OCc2ccccc2)c2ccc(NC(=N)N)cc2)cc1` (centres undefined), the results for the IC50 in assay [1] (read-out: IC50) and in assay [3] were 88 nM and 98 nM, respectively. Also, the Ratio IC50 in assay [2] is 0.9.

On to `Cc1ccc(OP(=O)(Oc2ccc(C)cc2)C(NC(=O)OCc2ccccc2)c2ccc(NC(=N)N)cc2)cc1` (centres undefined), for which the 50% inhibitory concentration (IC50) was 176 nM in assay [1] (read-out: IC50) and 370 nM in assay [3]. Moreover, the Ratio IC50 in assay [2] worked out at 0.48.

As to `COc1ccc(OP(=O)(Oc2ccc(OC)cc2)C(NC(=O)OCc2ccccc2)c2ccc(NC(=N)N)cc2)cc1` (centres undefined), the figures for the IC50 in assay [1] (read-out: IC50) and in assay [3] were 251 nM and 2600 nM, respectively. Besides, the Ratio IC50 in assay [2] was 0.1.

In the case of `CC(C)c1ccc(OP(=O)(Oc2ccc(C(C)C)cc2)C(NC(=O)OCc2ccccc2)c2ccc(NC(=N)N)cc2)cc1` (centres undefined), the IC50 in assay [1] (read-out: IC50) was 61 nM; in assay [3], 208 nM. Besides, the Ratio IC50 in assay [2] is 0.29.

With `N=C(N)Nc1ccc(C(NC(=O)OCc2ccccc2)P(=O)(Oc2ccccc2)Oc2ccccc2)cc1` (centres undefined), the results for the IC50 in assay [1] (read-out: IC50) and in assay [3] were 112 nM and 532 nM, respectively. The Ratio IC50 in assay [2] came out at 0.21.

Take `N=C(N)Nc1ccc(C(NC(=O)OCc2ccccc2)P(=O)(Oc2ccc3ccccc3c2)Oc2ccc3ccccc3c2)cc1.O=C(O)C(F)(F)F` (centres undefined): the 50% inhibitory concentration (IC50) result in assay [1] is “Not Active”; in assay [3] it was 455 nM.
